# From patent US9926318B2, “Tetracyclic autotaxin inhibitors” (PharmAkea, Inc., priority 2013, dated 2018)
# How the values were obtained:
# human autotaxin (ATX) = human autotaxin (ATX) (Homo sapiens (Human), UniProt Q13822); assay: Human autotaxin assay (choline release from LPC, Hep3B conditioned media); assay type: biochemical; details: concentrated conditioned media from Hep3B cells, LPC substrate
# Method: ATX activity is assayed in concentrated conditioned media from Hep3B human hepatocellular carcinoma cells by measuring the amount of choline released from the substrate, lysophosphatidylcholine (LPC) as it is cleaved to LPA. Conditioned media is collected from confluent Hep3B cells and concentrated 20-fold using Centriprep-30 filter devices (Millipore). […] 100 μl of a color mix containing 4.5 mM 4-aminoantipyrine, 2.7 mM N-ethyl-N-(2-hydroxy-3-sulfopropyl)-m-toluidine, 21 units/ml horseradish peroxidase and 3 units/ml choline oxidase in 50 mM Tris, pH 8, 4.5 mM MgCl2 is added and the incubation continued for 15 minutes at room temperature before reading the absorbance at 555 nm.
# [1] = rat male reproductive tissue toxicity study; assay type: in vivo; details: for decreases in the testes weight (as a percentage of body weight): dosed at 300 mpk PO for 5 days; for decreases in testes weight: rat male reproductive tissue toxicity study
# Method: In some embodiments, male reproductive tissue toxicity can be assessed in suitable in vivo models. In some embodiments, male reproductive tissue toxicity is assessed by monitoring any decreases in the testes weight and/or epididymis weight.
IC50 (human autotaxin (ATX)),Structure (SMILES),decreases in the testes weight (as a percentage of body weight) [1],decreases in testes weight [1]
< 500 nM,"O=C(O)CCCN1C(=O)C2Cc3c(n(Cc4ccc(F)cc4)c4ccccc34)CN2C1=O (racemic) [Compound 1-1, 4-(6-(4-fluorobenzyl)-1,3-dioxo-11,11a-dihydro-1H-imidazo[1′,5′:1,6]pyrido[3,4-b]indol-2(3H,5H,6H)-yl)butanoic acid]",no decreases in the testes weight,did not exhibit the same effects
–,"O=C(O)CCN1C(=O)[C@@H]2Cc3c(n(Cc4ccc(F)cc4)c4ccccc34)CN2C1=O [Compound 1-5, (S)-3-(6-(4-fluorobenzyl)-1,3-dioxo-5,6,11,11a-tetrahydro-1H-imidazo[1′,5′:1,6]pyrido[3,4-b]indol-2(3H)-yl)propanoic acid]",–,undesired decreases in testes weight
< 500 nM,"O=C1NC(=O)N2Cc3c(c4ccccc4n3Cc3ccc(F)cc3)CC12 (racemic) [Compound 1-15, 6-(4-fluorobenzyl)-5,6,11,11a-tetrahydro-1H-imidazo[1′,5′:1,6]pyrido[3,4-b]indole-1,3(2H)-dione]",no decreases in the testes weight,did not exhibit the same effects
